This passage reports Activity, inhibition and zone of inhibition results from ChEMBL document CHEMBL3044727, “Syntheses, spectral, crystallographic, antimicrobial, and antioxidant studies of few Mannich bases” (2012).

Holding throughout (assay type): functional
Experiment [1] concerns Radical scavenging activity. As to the kind of experiment: Antioxidant activity assessed as DPPH radical scavenging activity at 125 ug. Background: DPPH is a stable violet radical that fades when it is reduced.
Experiment [2] concerns Radical scavenging activity. Kind of experiment: Antioxidant activity assessed as DPPH radical scavenging activity at 100 ug.
The subject of experiment [3] is Radical scavenging activity. As to the kind of experiment: Antioxidant activity assessed as DPPH radical scavenging activity at 50 ug.
Experiment [4] relates to Radical scavenging activity. Kind of experiment: Antioxidant activity assessed as DPPH radical scavenging activity at 75 ug.
The subject of experiment [5] is Radical scavenging activity. As to the kind of experiment: Antioxidant activity assessed as DPPH radical scavenging activity at 25 ug.
The nature of experiment [6]: Antioxidant activity assessed as inhibition of linoleic acid peroxidation at 100 ug by FTC method.
Experiment [7] can be described thus: Antioxidant activity assessed as inhibition of linoleic acid peroxidation at 125 ug by FTC method.
Experiment [8] is described as follows: Antioxidant activity assessed as inhibition of linoleic acid peroxidation at 75 ug by FTC method.
The nature of experiment [9]: Antioxidant activity assessed as inhibition of linoleic acid peroxidation at 50 ug by FTC method.
The nature of experiment [10]: Antioxidant activity assessed as inhibition of linoleic acid peroxidation at 25 ug by FTC method.
Experiment [11] deals with Radical scavenging activity. Kind of experiment: Antioxidant activity assessed as DPPH radical scavenging activity.
A short description of experiment [12]: Antioxidant activity assessed as inhibition of linoleic acid peroxidation by FTC method.
The test system of experiment [13] is Aspergillus fumigatus. Kind of experiment: Antimicrobial activity against Aspergillus fumigatus MTCC 6594 at 60 ug after 48 hr by streak plate method. The following applies: MTCC 6594, 48 h, read-out: IZ.
The test system of experiment [14] is Aspergillus fumigatus. As to the kind of experiment: Antimicrobial activity against Aspergillus fumigatus MTCC 6594 at 40 ug after 48 hr by streak plate method. The following applies: MTCC 6594, 48 h, read-out: IZ.
For experiment [15], the system named is Aspergillus oryzae. Kind of experiment: Antimicrobial activity against Aspergillus oryzae MTCC 3782 at 60 ug after 48 hr by streak plate method. To be noted: MTCC 3782, 48 h, read-out: IZ.
In experiment [16] the test system is Bacillus subtilis. As to the kind of experiment: Antimicrobial activity against Bacillus subtilis MTCC 4905 at 60 ug after 24 hr by streak plate method. To be noted: MTCC 4905, 24 h, read-out: IZ.
Experiment [17] relates to Bacillus subtilis. Kind of experiment: Antimicrobial activity against Bacillus subtilis MTCC 4905 at 40 ug after 24 hr by streak plate method. The following applies: MTCC 4905, 24 h, read-out: IZ.
The subject of experiment [18] is Escherichia coli. As to the kind of experiment: Antimicrobial activity against Escherichia coli MTCC 3261 at 60 ug after 24 hr by streak plate method. The following applies: MTCC 3261, 24 h, read-out: IZ.
Experiment [19] concerns Escherichia coli. Kind of experiment: Antimicrobial activity against Escherichia coli MTCC 3261 at 40 ug after 24 hr by streak plate method. To be noted: MTCC 3261, 24 h, read-out: IZ.
Experiment [20] deals with Aspergillus oryzae. Kind of experiment: Antimicrobial activity against Aspergillus oryzae MTCC 3782 at 40 ug after 48 hr by streak plate method. The following applies: MTCC 3782, 48 h, read-out: IZ.
The test system of experiment [21] is Aspergillus oryzae. Kind of experiment: Antimicrobial activity against Aspergillus oryzae MTCC 3782 at 20 ug after 48 hr by streak plate method. To be noted: MTCC 3782, 48 h, read-out: IZ.
Experiment [22] concerns Salmonella typhi. Kind of experiment: Antimicrobial activity against Salmonella enterica subsp. enterica serovar Typhi MTCC 3917 at 60 ug after 24 hr by streak plate method. To be noted: MTCC 3917, 24 h, read-out: IZ.
For experiment [23], the system named is Salmonella typhi. As to the kind of experiment: Antimicrobial activity against Salmonella enterica subsp. enterica serovar Typhi MTCC 3917 at 40 ug after 24 hr by streak plate method. The following applies: MTCC 3917, 24 h, read-out: IZ.
Experiment [24] relates to Salmonella typhi. As to the kind of experiment: Antimicrobial activity against Salmonella enterica subsp. enterica serovar Typhi MTCC 3917 at 20 ug after 24 hr by streak plate method. The following applies: MTCC 3917, 24 h, read-out: IZ.

The term inhibition denotes how much of the control response was suppressed. Take `O=C1O[C@H]([C@@H](O)CO)C(O)=C1O`: the Activity in experiment [1] is 59%; in experiment [2], 58%; in experiment [3] it was 54%; in experiment [4], 57%; in experiment [5], 53%. Further, the inhibition in experiment [6] is 35%; in experiment [7] it was 37%; in [8], 31.2%; in experiment [9] it was 27%; in experiment [10], 27.2%.
For the molecule `O=C1CCC(=O)N1CNc1ccccn1`, the Activity result in experiment [11] was “Dose-dependent effect”; in [1], 36%; in experiment [2] it was 27%; in experiment [3], 18%; in experiment [4], 22%; in experiment [5], 17%. In addition, the inhibition result in experiment [12] is “Dose-dependent effect”; in [6] it was 20%; in [7] it was 21%; in [8], 19%; in [9] it was 19%; in experiment [10], 18%. Moreover, the zone of inhibition at 60 µg/disc with Aspergillus fumigatus [13] stood at 13 mm; in the experiment on Aspergillus oryzae [15], 15 mm; with Bacillus subtilis [16] it was 8 mm; with Escherichia coli [18], 12 mm. Further, the zone of inhibition at 40 µg/disc in the experiment on Aspergillus fumigatus [14] stood at 7 mm; in the experiment with Bacillus subtilis [17], 5 mm; with Escherichia coli [19] it was 7 mm.
Take `O=C1CCC(=O)N1CNc1ccccc1`: the Activity in experiment [1] is 23%; in [2] it was 20%; in experiment [3], 14%; in experiment [4], 18%; in [5] it was 10%. Besides, the inhibition in [6] worked out at 19%; in experiment [7], 20%; in [8] it was 16%; in experiment [9], 15%; in experiment [10] it was 12%.
As for `O=C1c2ccccc2C(=O)N1CNc1ccccc1`, the Activity entry was “Dose-dependent effect” in experiment [11]; 24% in experiment [1]; 22% in experiment [2]; 19% in experiment [3]; 20% in experiment [4]; 15% in experiment [5]. Besides, the inhibition entry was “Dose-dependent effect” in experiment [12]; 15% in experiment [6]; 16% in experiment [7]; 15.6% in [8]; 13% in [9]; 11% in [10]. Besides, the zone of inhibition at 60 µg/disc was determined as 2 mm in the experiment with Aspergillus fumigatus [13]; 4 mm in the experiment on Aspergillus oryzae [15]; 14 mm with Bacillus subtilis [16]; 5 mm with Salmonella typhi [22]; 8 mm in the experiment on Escherichia coli [18]. In addition, the zone of inhibition at 40 µg/disc in the experiment on Aspergillus oryzae [20] was determined as 7 mm; in the experiment with Bacillus subtilis [17], 9 mm; in the experiment on Salmonella typhi [23] it was 5 mm; in the experiment on Escherichia coli [19], 3 mm. The zone of inhibition at 20 µg/disc with Aspergillus oryzae [21] worked out at 7 mm; in the experiment with Salmonella typhi [24], 3 mm.
For the molecule `O=C1CCC(=O)N1C(Nc1ccccc1)c1ccccc1` (stereo not drawn), the Activity result in experiment [11] was “Dose-dependent effect”; in experiment [1], 25%; in experiment [2], 18%; in [3], 14%; in experiment [4], 17%; in experiment [5], 9%. Also, the inhibition entry is “Dose-dependent effect” in experiment [12]; 20% in experiment [6]; 22% in [7]; 19% in [8]; 17% in [9]; 16% in experiment [10]. Also, the zone of inhibition at 60 µg/disc in the experiment with Aspergillus fumigatus [13] was 6 mm; with Aspergillus oryzae [15] it was 15 mm; in the experiment on Bacillus subtilis [16], 17 mm; in the experiment with Salmonella typhi [22], 11 mm; in the experiment with Escherichia coli [18], 16 mm. Further, the zone of inhibition at 40 µg/disc with Aspergillus oryzae [20] came to 12 mm; in the experiment with Bacillus subtilis [17] it was 10 mm; in the experiment on Salmonella typhi [23] it was 6 mm; in the experiment with Escherichia coli [19] it was 2 mm. Moreover, in the experiment with Aspergillus oryzae [21], the zone of inhibition at 20 µg/disc worked out at 3 mm.
Regarding `Oc1cc2ccccc2cc1Cn1cccc1`, the Activity result was “Dose-dependent effect” in experiment [11]; 38% in experiment [1]; 36% in experiment [2]; 33% in [3]; 35% in experiment [4]; 32% in experiment [5]. Further, the inhibition result was “Dose-dependent effect” in experiment [12]; 17% in experiment [6]; 19% in [7]; 16.2% in experiment [8]; 13% in experiment [9]; 10% in [10]. In addition, the zone of inhibition at 60 µg/disc stood at 3 mm in the experiment on Aspergillus fumigatus [13]; 14 mm in the experiment with Aspergillus oryzae [15]; 16 mm with Bacillus subtilis [16]; 23 mm in the experiment with Salmonella typhi [22]; 14 mm in the experiment with Escherichia coli [18]. Further, the zone of inhibition at 40 µg/disc stood at 10 mm in the experiment on Aspergillus oryzae [20], 14 mm with Bacillus subtilis [17], 22 mm in the experiment with Salmonella typhi [23] and 4 mm with Escherichia coli [19]. Moreover, in the experiment on Salmonella typhi [24], the zone of inhibition at 20 µg/disc turned out to be 22 mm.
Regarding VITAMIN E, the Activity in experiment [1] is 51%; in experiment [2], 50%; in experiment [3], 47%; in experiment [4] it was 49%; in [5], 45%. Also, the inhibition in experiment [6] turned out to be 29%; in [7], 33%; in experiment [8], 27%; in [9], 26%; in experiment [10], 23%.
Consider `O=C1CCC(=O)N1C(Nc1ccccn1)c1ccccc1` (stereo not drawn), for which the Activity entry is “Dose-dependent effect” in experiment [11]; 25% in experiment [1]; 23% in experiment [2]; 19% in experiment [3]; 20% in [4]; 16% in experiment [5]. Besides, the inhibition entry in [12] was “Dose-dependent effect”; in experiment [6] it was 19%; in [7] it was 21%; in experiment [8], 18%; in experiment [9], 17%; in experiment [10] it was 15%. Besides, the zone of inhibition at 60 µg/disc with Aspergillus fumigatus [13] worked out at 3 mm; with Aspergillus oryzae [15], 9 mm; in the experiment on Bacillus subtilis [16], 12 mm; in the experiment with Salmonella typhi [22], 6 mm; in the experiment with Escherichia coli [18], 7 mm. The zone of inhibition at 40 µg/disc with Aspergillus oryzae [20] stood at 10 mm; in the experiment on Bacillus subtilis [17], 7 mm; in the experiment on Salmonella typhi [23], 1 mm; in the experiment with Escherichia coli [19], 4 mm. Also, the zone of inhibition at 20 µg/disc with Aspergillus oryzae [21] was 12 mm.
